Biological target: T1, hERG (Homo sapiens, UniProt Q12809)
T1 construct: host or cells: HEK293
Experiment: hERG assay (automated patch clamp, QPatch HT)
Format: cell-based
Conditions: human, HEK293 cells stably expressing hERG, * = accurate hERG measurement may be limited by compound solubility
Procedure: Cell lines and cell culture: The HEK293 cell line stably expressing the hERG ion channel was provided from Charles River laboratories. Cells were maintained in tissue culture incubators per Charles River Laboratories SOP. Stocks were maintained in cryogenic storage. HEK293 cells were stably transfected with hERG cDNA.
Automated Patch Clamp Procedures: In preparation for a recording session, intracellular solution was loaded into the intracellular compartments of the QPlate and cell suspension was pipetted into the extracellular compartments. After establishment of a whole-cell configuration, membrane currents were recorded using up to 48 parallel patch clamp amplifiers in the QPatch HT® system. The current records were sampled at 2000 Hz and low-pass Bessel filtered at 400 Hz.
Valid whole-cell recordings met the following criteria: • 1. Membrane resistance ≥200 MΩ. • 2. Leak current 25% channel current or subtracted.
hERG Test Procedures: Onset and block of hERG current was measured using a stimulus voltage pattern consisting of a 500 ms prepulse to −40 mV (leakage subtraction), a 2-second activating pulse to +40 mV followed by a 2-second test pulse to −40 mV. The pulse pattern was repeated continuously at 10 s intervals from a holding potential of −80 mV. Peak tail current was measured during the −40 mV test pulse. Leakage current was calculated from the current amplitude evoked by the −40 mV prepulse and subtracted from the total membrane current record.
Data Analysis: Data acquisition and analysis were performed using the QPatch Assay Software (Sophion Bioscience A/S, Denmark). Steady state was defined by the limiting constant rate of change with time (linear time dependence). The steady state before and after test article application were used to calculate the percentage of current inhibited at each concentration. Run down, a time-dependent reduction of current amplitude, may be compensated for in the QPatch Assay Software using standard system tools. Concentration-response data was fit to an equation of the following form: […]
Where [Test] is the concentration of test compound, IC50 is the concentration of the test compound producing half-maximal inhibition, N is the Hill coefficient and % Block is the percentage of current inhibited at each concentration of the test article. Nonlinear least squares fits will be solved with the Solver add-in for Excel 2000 or later (Microsoft, Redmond, WA).

T1 sequence (Q12809 whole entry): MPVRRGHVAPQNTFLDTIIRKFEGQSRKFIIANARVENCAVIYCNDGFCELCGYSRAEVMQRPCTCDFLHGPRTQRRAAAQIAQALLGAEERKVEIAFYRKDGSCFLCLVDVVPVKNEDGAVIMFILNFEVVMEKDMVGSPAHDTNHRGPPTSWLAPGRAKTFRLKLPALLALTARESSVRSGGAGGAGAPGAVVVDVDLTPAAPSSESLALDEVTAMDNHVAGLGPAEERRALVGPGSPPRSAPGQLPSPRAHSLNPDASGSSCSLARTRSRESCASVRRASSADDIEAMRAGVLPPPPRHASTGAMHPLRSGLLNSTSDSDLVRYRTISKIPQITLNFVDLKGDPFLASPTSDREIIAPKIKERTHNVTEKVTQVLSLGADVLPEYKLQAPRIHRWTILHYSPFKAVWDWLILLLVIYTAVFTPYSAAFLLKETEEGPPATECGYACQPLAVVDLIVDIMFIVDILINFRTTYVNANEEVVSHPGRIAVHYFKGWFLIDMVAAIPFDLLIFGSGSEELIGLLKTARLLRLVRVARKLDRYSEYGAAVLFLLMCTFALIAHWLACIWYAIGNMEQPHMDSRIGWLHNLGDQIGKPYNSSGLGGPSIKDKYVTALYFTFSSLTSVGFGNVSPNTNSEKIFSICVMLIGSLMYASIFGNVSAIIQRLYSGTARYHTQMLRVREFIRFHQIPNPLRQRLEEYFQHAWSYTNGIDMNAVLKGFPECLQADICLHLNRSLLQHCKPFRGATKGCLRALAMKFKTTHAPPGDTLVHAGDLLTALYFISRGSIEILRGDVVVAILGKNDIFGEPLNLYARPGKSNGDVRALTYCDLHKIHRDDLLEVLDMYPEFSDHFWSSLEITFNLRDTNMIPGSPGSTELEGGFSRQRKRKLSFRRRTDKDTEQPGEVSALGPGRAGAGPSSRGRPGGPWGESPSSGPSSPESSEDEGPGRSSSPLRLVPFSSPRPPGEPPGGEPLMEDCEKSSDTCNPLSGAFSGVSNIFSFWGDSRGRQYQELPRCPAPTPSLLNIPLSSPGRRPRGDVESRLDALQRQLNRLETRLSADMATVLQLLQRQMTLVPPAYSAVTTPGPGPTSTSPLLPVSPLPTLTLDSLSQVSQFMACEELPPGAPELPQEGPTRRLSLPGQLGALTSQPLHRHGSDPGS

SMILES: Nc1nc2cnc(C(=O)N3CC4(CC4)C[C@@H]4Oc5cc(C(F)(F)F)ccc5[C@@H]43)cc2n2cncc12 [Ff-648, (4-aminoimidazo[1,5-a]pyrido[3,4-e]pyrazin-8-yl)((4aS,9bS)-7-(trifluoromethyl)-4a,9b-dihydro-2H-spiro[benzofuro[3,2-b]pyridine-3,1′-cyclopropan]-1(4H)-yl)methanone]
- IC50: 30 µM
